Here are results for eight molecules from ChEMBL document CHEMBL5465560, “Selectivity Literature for EUbOPEN Chemogenomic Library” (2024).

The target of assay [1] is T1, Mitogen-activated protein kinase 13 (Homo sapiens) (UniProt O15264).
T1 sequence (whole entry): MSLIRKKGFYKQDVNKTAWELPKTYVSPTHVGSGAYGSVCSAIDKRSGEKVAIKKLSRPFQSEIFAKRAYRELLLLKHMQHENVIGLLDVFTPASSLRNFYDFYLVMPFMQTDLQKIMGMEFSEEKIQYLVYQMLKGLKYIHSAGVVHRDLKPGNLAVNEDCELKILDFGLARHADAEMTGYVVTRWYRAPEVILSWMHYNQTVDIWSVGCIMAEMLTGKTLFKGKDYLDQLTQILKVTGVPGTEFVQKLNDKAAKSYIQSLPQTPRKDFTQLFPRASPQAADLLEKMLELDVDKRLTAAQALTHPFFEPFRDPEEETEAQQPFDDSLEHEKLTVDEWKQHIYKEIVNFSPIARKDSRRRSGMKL
The settings on record: at 10 µM.

The target of assay [2] is T2, PAN2-PAN3 deadenylation complex subunit PAN3 (Homo sapiens) (UniProt Q58A45).
T2 sequence (whole entry): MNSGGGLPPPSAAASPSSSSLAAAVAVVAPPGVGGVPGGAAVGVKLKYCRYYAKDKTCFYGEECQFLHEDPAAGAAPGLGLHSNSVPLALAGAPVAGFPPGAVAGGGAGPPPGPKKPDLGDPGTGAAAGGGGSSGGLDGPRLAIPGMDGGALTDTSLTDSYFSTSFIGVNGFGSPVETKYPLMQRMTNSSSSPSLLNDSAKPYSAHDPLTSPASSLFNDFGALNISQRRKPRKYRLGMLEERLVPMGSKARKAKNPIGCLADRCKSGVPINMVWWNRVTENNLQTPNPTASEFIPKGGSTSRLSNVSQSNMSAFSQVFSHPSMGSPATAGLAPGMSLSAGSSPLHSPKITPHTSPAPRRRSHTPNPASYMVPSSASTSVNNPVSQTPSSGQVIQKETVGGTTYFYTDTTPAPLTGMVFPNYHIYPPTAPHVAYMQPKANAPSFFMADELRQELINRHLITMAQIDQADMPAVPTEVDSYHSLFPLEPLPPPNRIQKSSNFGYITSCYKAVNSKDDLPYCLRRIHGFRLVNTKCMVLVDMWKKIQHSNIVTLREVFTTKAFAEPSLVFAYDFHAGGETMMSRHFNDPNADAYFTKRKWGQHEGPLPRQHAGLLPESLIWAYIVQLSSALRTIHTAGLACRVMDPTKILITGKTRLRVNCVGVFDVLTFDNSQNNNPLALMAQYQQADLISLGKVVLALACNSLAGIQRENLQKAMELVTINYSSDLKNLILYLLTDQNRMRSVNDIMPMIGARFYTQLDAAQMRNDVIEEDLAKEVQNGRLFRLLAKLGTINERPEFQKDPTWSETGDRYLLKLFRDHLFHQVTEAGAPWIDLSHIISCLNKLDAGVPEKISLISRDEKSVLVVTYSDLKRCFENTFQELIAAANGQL
As to the kind of experiment: Selectivity interaction (ActivX KiNativ screen (kinase selectivity in THP-1 cell lysates)) EUB0000639a PAN3. It counts as subcellular. The following applies: lysate.

Assay [3] deals with Serine/threonine-protein kinase 10 (Homo sapiens) (UniProt O94804). As to the kind of experiment: Selectivity interaction (ActivX KiNativ screen (kinase selectivity in THP-1 cell lysates)) EUB0000639a STK10. In kind it is subcellular. The settings on record: lysate, at 5 µM.
Sequence of Serine/threonine-protein kinase 10 (Homo sapiens) (O94804 whole entry, looked up): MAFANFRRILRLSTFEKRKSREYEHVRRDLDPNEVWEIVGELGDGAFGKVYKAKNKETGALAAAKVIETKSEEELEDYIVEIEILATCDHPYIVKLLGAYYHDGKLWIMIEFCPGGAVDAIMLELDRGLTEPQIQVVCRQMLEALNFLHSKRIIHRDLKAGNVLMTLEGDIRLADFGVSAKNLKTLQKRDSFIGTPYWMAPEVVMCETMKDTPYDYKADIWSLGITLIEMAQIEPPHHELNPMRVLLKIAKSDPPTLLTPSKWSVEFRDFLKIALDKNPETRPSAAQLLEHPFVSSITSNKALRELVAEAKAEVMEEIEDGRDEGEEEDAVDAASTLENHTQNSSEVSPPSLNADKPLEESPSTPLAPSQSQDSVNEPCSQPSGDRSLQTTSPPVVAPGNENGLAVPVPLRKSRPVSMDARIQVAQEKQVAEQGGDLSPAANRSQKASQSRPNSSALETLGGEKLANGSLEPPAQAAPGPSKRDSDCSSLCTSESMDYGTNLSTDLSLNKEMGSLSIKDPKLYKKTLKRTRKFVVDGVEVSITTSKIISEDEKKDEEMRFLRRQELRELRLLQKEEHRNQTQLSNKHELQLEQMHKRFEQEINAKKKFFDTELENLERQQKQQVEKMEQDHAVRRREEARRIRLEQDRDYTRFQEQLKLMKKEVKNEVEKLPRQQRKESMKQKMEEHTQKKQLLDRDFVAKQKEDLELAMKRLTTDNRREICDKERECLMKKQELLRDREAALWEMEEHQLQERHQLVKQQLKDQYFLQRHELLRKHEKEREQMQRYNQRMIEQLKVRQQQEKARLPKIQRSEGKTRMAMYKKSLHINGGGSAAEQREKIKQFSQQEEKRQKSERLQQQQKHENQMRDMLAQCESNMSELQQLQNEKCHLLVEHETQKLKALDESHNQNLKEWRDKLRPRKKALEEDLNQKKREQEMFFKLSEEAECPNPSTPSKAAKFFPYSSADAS
Assay [4] deals with T3, Membrane-associated tyrosine- and threonine-specific cdc2-inhibitory kinase (Homo sapiens) (UniProt Q99640).
T3 sequence (whole entry): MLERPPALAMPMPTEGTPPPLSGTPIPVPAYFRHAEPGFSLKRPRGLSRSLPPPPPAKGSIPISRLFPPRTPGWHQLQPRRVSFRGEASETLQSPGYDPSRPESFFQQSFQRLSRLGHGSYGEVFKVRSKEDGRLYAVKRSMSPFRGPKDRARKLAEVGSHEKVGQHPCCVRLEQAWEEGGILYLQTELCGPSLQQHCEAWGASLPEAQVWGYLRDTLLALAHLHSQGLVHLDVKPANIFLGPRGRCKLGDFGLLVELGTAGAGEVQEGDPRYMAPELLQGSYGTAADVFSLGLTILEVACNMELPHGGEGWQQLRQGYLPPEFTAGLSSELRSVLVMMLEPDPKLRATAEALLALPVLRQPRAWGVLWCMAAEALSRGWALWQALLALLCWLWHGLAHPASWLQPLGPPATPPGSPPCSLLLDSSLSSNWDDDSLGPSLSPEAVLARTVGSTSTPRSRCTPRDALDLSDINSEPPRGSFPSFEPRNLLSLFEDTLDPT
As to the kind of experiment: Selectivity interaction (Kinase panel (DSF assay)) EUB0001559a PKMYT1. (In general: Differential scanning fluorimetry follows unfolding on heating by fluorescence.)

The target of assay [5] is Dual specificity protein kinase CLK4 (Homo sapiens, UniProt Q9HAZ1). As to the kind of experiment: Selectivity interaction (ProQinase) EUB0000171b CLK4.
Sequence of Dual specificity protein kinase CLK4 (Q9HAZ1 whole entry, looked up): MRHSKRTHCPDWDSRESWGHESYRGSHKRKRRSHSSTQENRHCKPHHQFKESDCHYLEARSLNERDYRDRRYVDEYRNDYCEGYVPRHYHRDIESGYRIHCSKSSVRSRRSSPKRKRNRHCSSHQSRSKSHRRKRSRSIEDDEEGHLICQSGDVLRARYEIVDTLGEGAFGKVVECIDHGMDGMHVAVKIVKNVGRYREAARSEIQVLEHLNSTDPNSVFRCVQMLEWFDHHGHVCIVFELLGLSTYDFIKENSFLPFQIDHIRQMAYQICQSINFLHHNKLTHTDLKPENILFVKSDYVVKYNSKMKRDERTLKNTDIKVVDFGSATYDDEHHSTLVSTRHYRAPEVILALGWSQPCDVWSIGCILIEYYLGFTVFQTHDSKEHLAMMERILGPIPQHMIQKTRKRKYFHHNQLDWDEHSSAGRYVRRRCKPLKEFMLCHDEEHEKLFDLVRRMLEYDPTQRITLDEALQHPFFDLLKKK
Assay [6] addresses Ribosomal protein S6 kinase alpha-4 (Homo sapiens) (UniProt O75676). As to the kind of experiment: Selectivity interaction (KinomeScan (DiscoverX)) EUB0000655a RPS6KA4. The following applies: at 10 µM.
The next assay addresses Insulin receptor (Homo sapiens, UniProt P06213). As to the kind of experiment: Selectivity interaction (KinomeScan (DiscoverX)) EUB0000618a INSR. The settings on record: at 10 µM.
In assay [7] the target is Kappa-type opioid receptor (Homo sapiens, UniProt P41145). As to the kind of experiment: Selectivity interaction (Panel of kinases, GPCRs, ion channels and transporters (enzymatic assay)) EUB0000266bCl OPRK1.
Sequence of Kappa-type opioid receptor (P41145 whole entry): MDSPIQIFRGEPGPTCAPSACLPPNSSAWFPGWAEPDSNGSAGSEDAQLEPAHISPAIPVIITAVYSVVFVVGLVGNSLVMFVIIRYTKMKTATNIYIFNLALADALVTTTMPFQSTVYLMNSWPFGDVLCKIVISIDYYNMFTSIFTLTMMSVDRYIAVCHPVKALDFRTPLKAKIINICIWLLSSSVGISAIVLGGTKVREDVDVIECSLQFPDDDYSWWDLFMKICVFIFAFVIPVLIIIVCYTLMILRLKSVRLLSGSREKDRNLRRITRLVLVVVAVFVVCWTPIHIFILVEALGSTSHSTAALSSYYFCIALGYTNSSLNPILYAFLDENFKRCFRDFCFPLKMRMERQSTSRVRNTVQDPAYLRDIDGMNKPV
The target in assay [8] is T4, Interleukin-1 receptor-associated kinase 3 (Homo sapiens) (UniProt Q9Y616).
T4 sequence (whole entry): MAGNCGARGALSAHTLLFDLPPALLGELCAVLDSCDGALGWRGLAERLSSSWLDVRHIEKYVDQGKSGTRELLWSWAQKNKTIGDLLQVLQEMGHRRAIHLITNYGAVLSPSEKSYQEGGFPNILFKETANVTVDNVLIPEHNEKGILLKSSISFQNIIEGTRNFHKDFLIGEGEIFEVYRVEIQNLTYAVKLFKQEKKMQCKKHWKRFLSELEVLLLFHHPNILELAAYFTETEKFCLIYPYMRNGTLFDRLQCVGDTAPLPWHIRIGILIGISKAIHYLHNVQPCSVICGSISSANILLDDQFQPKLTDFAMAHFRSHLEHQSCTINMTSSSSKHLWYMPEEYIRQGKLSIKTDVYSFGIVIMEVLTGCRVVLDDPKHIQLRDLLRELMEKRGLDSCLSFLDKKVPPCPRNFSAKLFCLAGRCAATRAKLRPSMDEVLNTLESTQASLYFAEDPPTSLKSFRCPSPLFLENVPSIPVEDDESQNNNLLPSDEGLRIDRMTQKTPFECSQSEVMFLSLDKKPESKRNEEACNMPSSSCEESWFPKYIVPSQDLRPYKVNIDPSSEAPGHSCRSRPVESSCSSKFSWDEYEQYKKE
As to the kind of experiment: Selectivity interaction (KinomeScan (DiscoverX)) EUB0000229b IRAK3. The settings on record: at 10 µM.

Sequence of Insulin receptor (P06213 28-758 limits assumed): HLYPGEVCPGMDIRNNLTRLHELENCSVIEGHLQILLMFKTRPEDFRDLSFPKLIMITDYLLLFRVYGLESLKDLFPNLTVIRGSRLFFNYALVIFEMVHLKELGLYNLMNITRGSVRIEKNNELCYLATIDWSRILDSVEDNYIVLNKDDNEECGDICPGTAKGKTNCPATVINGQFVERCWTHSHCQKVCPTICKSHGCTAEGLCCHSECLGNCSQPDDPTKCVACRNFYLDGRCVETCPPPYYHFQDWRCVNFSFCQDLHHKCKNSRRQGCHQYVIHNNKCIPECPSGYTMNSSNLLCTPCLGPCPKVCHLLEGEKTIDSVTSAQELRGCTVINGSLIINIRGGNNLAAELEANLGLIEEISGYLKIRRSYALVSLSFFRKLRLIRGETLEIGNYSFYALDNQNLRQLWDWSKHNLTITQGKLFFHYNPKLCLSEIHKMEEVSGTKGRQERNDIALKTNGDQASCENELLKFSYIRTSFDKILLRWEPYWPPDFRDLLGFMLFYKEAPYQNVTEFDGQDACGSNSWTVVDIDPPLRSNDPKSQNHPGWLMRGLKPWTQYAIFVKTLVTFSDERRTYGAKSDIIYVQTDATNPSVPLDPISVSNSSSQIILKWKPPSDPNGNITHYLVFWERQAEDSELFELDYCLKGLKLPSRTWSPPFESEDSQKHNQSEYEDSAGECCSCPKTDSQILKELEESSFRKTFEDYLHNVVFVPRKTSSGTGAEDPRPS
Sequence of Insulin receptor (P06213 763-1382 limits assumed): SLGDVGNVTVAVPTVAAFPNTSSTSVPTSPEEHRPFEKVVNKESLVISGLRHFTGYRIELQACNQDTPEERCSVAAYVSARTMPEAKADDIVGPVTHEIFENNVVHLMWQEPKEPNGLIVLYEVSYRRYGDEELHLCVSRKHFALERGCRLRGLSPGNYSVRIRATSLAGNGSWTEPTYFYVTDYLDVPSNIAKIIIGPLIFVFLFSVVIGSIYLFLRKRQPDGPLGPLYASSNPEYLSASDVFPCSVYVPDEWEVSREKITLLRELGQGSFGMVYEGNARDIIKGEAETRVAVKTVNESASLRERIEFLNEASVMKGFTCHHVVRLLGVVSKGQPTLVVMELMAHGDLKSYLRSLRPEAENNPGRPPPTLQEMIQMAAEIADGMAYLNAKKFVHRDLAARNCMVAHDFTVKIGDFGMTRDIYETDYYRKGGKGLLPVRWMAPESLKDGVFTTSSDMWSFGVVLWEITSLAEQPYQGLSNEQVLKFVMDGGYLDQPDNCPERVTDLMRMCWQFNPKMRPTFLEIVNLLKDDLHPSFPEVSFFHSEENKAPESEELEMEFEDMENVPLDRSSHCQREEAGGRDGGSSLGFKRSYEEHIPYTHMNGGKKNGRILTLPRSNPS
Sequence of Ribosomal protein S6 kinase alpha-4 (Homo sapiens) (O75676 whole entry, looked up): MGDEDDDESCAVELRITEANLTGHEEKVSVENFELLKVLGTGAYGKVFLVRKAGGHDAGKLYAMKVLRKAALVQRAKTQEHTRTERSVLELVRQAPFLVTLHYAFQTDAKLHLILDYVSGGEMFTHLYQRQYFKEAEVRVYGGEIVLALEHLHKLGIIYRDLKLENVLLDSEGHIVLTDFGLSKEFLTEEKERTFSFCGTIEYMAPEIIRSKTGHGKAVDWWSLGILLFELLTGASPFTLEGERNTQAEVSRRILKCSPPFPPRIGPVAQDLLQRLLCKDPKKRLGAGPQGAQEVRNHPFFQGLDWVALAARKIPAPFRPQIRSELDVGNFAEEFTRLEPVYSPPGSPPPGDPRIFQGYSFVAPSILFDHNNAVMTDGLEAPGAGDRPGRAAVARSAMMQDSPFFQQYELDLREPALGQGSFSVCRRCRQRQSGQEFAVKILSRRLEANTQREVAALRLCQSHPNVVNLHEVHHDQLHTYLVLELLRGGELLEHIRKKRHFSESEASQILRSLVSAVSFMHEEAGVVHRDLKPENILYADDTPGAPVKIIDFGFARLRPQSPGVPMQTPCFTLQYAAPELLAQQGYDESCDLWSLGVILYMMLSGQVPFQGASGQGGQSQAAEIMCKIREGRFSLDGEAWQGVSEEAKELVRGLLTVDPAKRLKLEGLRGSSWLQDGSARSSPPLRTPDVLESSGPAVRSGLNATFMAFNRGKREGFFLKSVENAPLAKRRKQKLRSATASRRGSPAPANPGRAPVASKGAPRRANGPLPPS

Consider `Cc1cc([C@@H](C)Nc2ccccc2C(=O)O)c2nc(N3CCOCC3)cc(=O)n2c1` [AZD-6482], for which the % of control in [1] is 87%.

In the case of `CC[C@@H]1[C@H](F)C(=O)N[C@@H]1COc1nccc2cc(C(N)=O)c(OC)cc12` [ZIMLOVISERTIB], the % of inhibition in [2] (at 0.01 µM) was 20.4%; in assay [2] (at 0.04 µM), -4.3%; in [2] (at 0.2 µM), -4.4%; in [2] (at 1 µM), -2.8%; in assay [2] (at 5 µM), -19.6%; in assay [3], -16.6%. For the molecule `CN(C(=O)c1cnn2cccnc12)c1cc2c(cc1N1CCOCC1)C(=O)N(C[C@@H](F)C(C)(C)O)C2`, the dTM in assay [4] is 0.4 K.

For `C=CC(=O)Nc1cccc(C(=O)Nc2ccc(Nc3cc(-c4[nH]c(SC)nc4C)ccn3)cc2)c1`, the results for the % of control in assay [5] (at 1 µM) and in [5] (at 5 µM) were 46% and 20%, respectively.

For `CN(C)CCOc1ccc(-c2nc(-c3ccncc3)c(-c3ccc4c(c3)CC/C4=N\O)[nH]2)cc1`, the % of control in assay [6] was found to be 100%. On to `O[C@H]1CC[C@H](Nc2ncc3nc(Nc4c(F)cc(F)cc4F)n([C@H]4CCOC4)c3n2)CC1`, for which the % of control at Insulin receptor is 98%. On to `CCn1c(-c2nc3cc(C(=O)N4CCCC(N)C4)ccc3n2C)cc2ccccc21` (centres undefined), for which the pXC50 in assay [7] was below 4 M. Regarding `COc1cc(N(C)c2ccnc3ccc(C(F)(F)F)cc23)cc(OC)c1OC`, the % binding in assay [8] was 0%.
